The text below walks through data of patent publication US4124723A, “Method for suppressing histamine release” (Carter-Wallace, Inc., priority 1977, dated 1978).

The subject of assay [1] is sensitized rabbit leukocytes. Kind of assay: Inhibition of histamine release from sensitized rabbit leukocytes (in vitro). It is filed as cell-based. Particulars: for IC50: Oryctolagus cuniculus, Leukocyte, ragweed-sensitized rabbit leukocytes, ragweed antigen, with S.E.M., read-out: ED50 + S.E.M. (molar concentration required to give 50% inhibition of histamine release); for Relative in vitro Inhibition of Histamine Release: relative to chlorphenesin = 1. As for the experimental part: The procedure published by L. M. Lichtenstein and A. G. Osler, J. EXPTL. MEDICINE, 120:507-530, 1964, for the determination of histamine from human leukocytes, was used to measure histamine release from sensitized rabbit leukocytes. Forty-five ml of blood, drawn by cardiac puncture from ragweed-sensitized rabbits with a plastic syringe containing 250 units of heparin in 5 ml of physiological saline solution, was used. Measurements were made of the total amount of histamine in the leukocytes, the amount of histamine released with the specific antigen (ragweed), the amount of histamine released spontaneously (cell blanks), and the amount of histamine released in the presence of various concratrations of drugs under test.
Appropriate controls for buffer antigen and drugs were included and an internal histamine standard curve was established with each experiment. Inhibition of histamine release was computed from the amount of histamine released by the ragweed antigen in the presence and absence of the drug, i.e., the difference between the quantity of histamine released spontaneously and the amount released by antigen.

A further assay has as its system human leukocytes. As to conditions: reported by Lichtenstein and Adkinson, J. Immunology 103:866, 1969; cited from earlier work.
Assay [2] relates to ragweed-sensitized rabbits. Briefly: Inhibition of histamine release after oral administration to ragweed-sensitized rabbits (in vivo). As to conditions: 100 mg/kg oral, rabbit, 50 μg antigen N per ml. As for the experimental part:
Five ml of blood was drawn by cardiac puncture from a ragweed-sensitized rabbit to ascertain the basic histamine content of the blood. The amount of histamine released by the addition of 50 μg of antigen N per ml of the assay system was determined. The rabbit was then treated orally with 100 mg/kg of drug using a catheter. One and 5 hr following administration of drug, 5 ml of blood was withdrawn and assayed for histamine by the spectrofluorometric method described by P. A. Shore, A. Burkhalter and V. H. Cohn, Jr., J. PHARMACOL. and EXPTL. THERAP., 127:182, 1959. The percentage inhibition of histamine release was computed from the amount of histamine released before and at 1 and 5 hr following administration of drug.

Each structure is given as a SMILES string.

Consider `CC(=O)OCCCCSc1ccc(Cl)cc1` [Compound 3, 4-(p-Chlorophenylthio)butyl acetate], for which, in assay [1], the IC50 was 6.3 µM and the “Relative in vitro Inhibition of Histamine Release” value (shortened to “Relative in vitro Inhibition”) worked out at 52.

With `O=C(O)CSc1ccc(Cl)cc1` [Compound 2, 2-(p-Chlorophenylthio)acetic acid], in assay [1], the IC50 amounted to 44 µM and the “Relative in vitro Inhibition” value came out at 8.

Take `COCCCCSc1ccc(Cl)cc1` [Compound 4, 4-(p-Chlorophenylthio)butyl methyl ether]: in assay [1], the IC50 was 28 µM and the “Relative in vitro Inhibition” value is given as 12.

With `OCC(O)COc1ccc(Cl)cc1` (stereo not shown) [chlorphenesin, 3-p-chlorophenoxy-1,2-propanediol, reference compound], in assay [1], the IC50 is 330 µM and the “Relative in vitro Inhibition” value came out at 1. Besides, the “inhibition of histamine release from human leukocytes” value with human leukocytes is listed as “inhibit histamine release from human leukocytes”.

Consider `O=C(O)CCCSc1ccc(Cl)cc1` [Compound 1, Sodium 4-(p-Chlorophenylthio)butyrate], for which the “percentage inhibition of histamine release” value in assay [2] (5 hrs after drug) was 10-15%. The “percentage inhibition of histamine release” value in assay [2] (one hour after drug) is given as 30-40%. Moreover, in assay [1], the IC50 was 6 µM and the “Relative in vitro Inhibition” value is given as 55.
